Experimental findings from ChEMBL document CHEMBL3627715, “Caffeoyl glucosides from Nandina domestica inhibit LPS-induced endothelial inflammatory responses” (Bioorg Med Chem Lett, 2015) are described below.

Data set [1] deals with HUVEC. Description: Inhibition of LPS-induced neutrophil adhesion in HUVEC cells assessed as neutrophil adhesion to cell monolayer at 20 uM for 6 hrs pretreated with LPS for 4 hrs by fluorescence microplate reader assay (reference value: 86%). The data set is classed as functional, Homo sapiens. Also noted: scale not given: the % may be the effect or the level left.
The test system of data set [2] is HUVEC. Description: Inhibition of LPS-induced neutrophil migration in HUVEC cells assessed as migration index at 20 uM for 6 hrs pretreated with LPS for 4 hrs (reference value: 155). The data set is classed as functional, Homo sapiens.
The test system of data set [3] is HUVEC. Description: Inhibition of LPS-induced hyperpermeability in HUVEC cells for 6 hrs pretreated with LPS for 4 hrs by evans blue dye flux based immunofluorescence analysis. The data set is classed as functional, cell-based. Conditions: Homo sapiens.
In data set [4] the test system is HUVEC. The data set is described as follows: Inhibition of LPS-induced hyperpermeability in HUVEC cells assessed as permeability at 20 uM for 6 hrs pretreated with LPS for 4 hrs by evans blue dye flux based immunofluorescence analysis (reference value: 100%). The data set is classed as functional, Homo sapiens. Also noted: scale not given: the % may be the effect or the level left.

In data set [5] the test system is HUVEC. The data set is described as follows: Cytotoxicity against HUVEC cells assessed as permeability at 2.5 to 20 uM after 6 hrs by evans blue dye flux based immunofluorescence analysis. The note with it: human. The data set is classed as cell-based.
For data set [6], the system named is HUVEC. The data set is described as follows: Inhibition of LPS-induced neutrophil adhesion in HUVEC cells for 6 hrs pretreated with LPS for 4 hrs by fluorescence microplate reader assay. The data set is classed as functional, cell-based. The note with it: Homo sapiens.
Data set [7] concerns HUVEC. The data set is described as follows: Cytotoxicity against HUVEC cells assessed as neutrophil adhesion at 2.5 to 20 uM after 6 hrs by fluorescence microplate reader assay. It counts as cell-based. The note with it: human.
Data set [8] deals with HUVEC. Description: Inhibition of LPS-induced neutrophil migration in HUVEC cells for 6 hrs pretreated with LPS for 4 hrs. The data set is classed as functional, cell-based. Conditions: Homo sapiens.
Data set [9] concerns HUVEC. The data set is described as follows: Cytotoxicity against HUVEC cells assessed as neutrophil migration at 2.5 to 20 uM after 6 hrs. It counts as cell-based. The note with it: human.
Data set [10] is described as follows: Acid hydrolysis of compound assessed as retention time at 2 mg after 6 hrs by RP-HPLC method. It counts as physicochemical.

Consider `O=C(/C=C/c1ccc(O)c(O)c1)OCc1ccc(O[C@@H]2O[C@H](CO)[C@@H](O)[C@H](O)[C@H]2O)cc1`, for which the Activity in the data set with HUVEC [1] is on record as 73%. Besides, the Activity_index in the data set with HUVEC [2] was 142.

With `O=Cc1ccc(O[C@@H]2O[C@H](CO)[C@@H](OC(=O)/C=C/c3ccc(O)c(O)c3)[C@H](O)[C@H]2O)cc1`, the inhibition entry with HUVEC [3], in the data set on HUVEC [6] and in the data set on HUVEC [8] was “Dose-dependent effect” each time. For the same compound, the Activity was 58% in the data set with HUVEC [4]; “Non-toxic” with HUVEC [5]; 33% in the data set with HUVEC [1]; “Non-toxic” with HUVEC [7]; “Non-toxic” in the data set on HUVEC [9]. Also, the Activity_index in the data set on HUVEC [2] is 74.

Turning to `O=c1cc(-c2ccc(O)c(O)c2)oc2c([C@@H]3O[C@H](CO)[C@@H](O)[C@H](O)[C@H]3O)c(O)cc(O)c12` [ORIENTIN], the Activity in the data set on HUVEC [4] was 71%; in the data set with HUVEC [1], 41%. In addition, the inhibition result in the data set with HUVEC [8] was “Dose-dependent effect”. In addition, the Activity_index with HUVEC [2] is on record as 73.

Consider `O=Cc1ccc(O[C@@H]2O[C@H](COC(=O)/C=C/c3ccc(O)c(O)c3)[C@@H](O)[C@H](O)[C@H]2O)cc1`, for which the Retention_time in data set [10] is 28.1 min. The inhibition entry in the data set with HUVEC [3], with HUVEC [6] and with HUVEC [8] was “Dose-dependent effect” each time. Further, the Activity was 73% in the data set on HUVEC [4]; “Non-toxic” in the data set on HUVEC [5]; 30% in the data set with HUVEC [1]; “Non-toxic” with HUVEC [7]; “Non-toxic” in the data set with HUVEC [9]. For the same compound, the Activity_index in the data set on HUVEC [2] worked out at 75.
